Experimental findings from article PMC11435220, “Anticancer Activity of Imidazolyl Gold(I/III) Compounds in Non-Small Cell Lung Cancer Cell Lines” (Pharmaceuticals, 2024) are described below.

Read-outs that look alike come from different tables or passages of the source.

One data set relates to H1395. As to the kind of experiment: MTT viability assay, H1395. It is filed as cell-based, human. Conditions: mean ± span, 48 h treatment, cell line without KRAS mutation. In a few lines:
(§1)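 Compounds were applied for 48 h to subconfluent cultures (RPMI, 10% heat-inactivated FBS), with MTT conversion read at 570 nm. Potency was taken as IC50 from nonlinear regression.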

A further data set deals with H460. As to the kind of experiment: MTT viability assay, H460. Conditions: mean ± span, 48 h treatment, cell line with KRAS mutation. The data set is classed as cell-based, human. In a few lines:
as §1

Data set [1] concerns human NSCLC cell lines without KRAS mutations. As to the kind of experiment: MTT assay, average across NSCLC cell lines without KRAS mutations. Conditions: average across cell lines without KRAS mutations (H522, H661, H1395, H1993), 48 h, read-out: IC50 * averaged values. It is filed as cell-based. In a few lines: as §1
Data set [2] in a line: Solution stability by UV-visible spectra over time. It is filed as physicochemical. Particulars: UV-visible spectra over time; DMSO, methanol, PBS buffered solutions. The protocol:
Stability studies were led by acquiring UV−visible spectra of 100 µM DMSO or methanol solutions of compounds 1∓8 over time (Figures S19–S29 in Supplementary Materials). […] The stability of NHC-AuX3 complexes (with X = Cl, compounds 1 and 2, with X = Br, compounds 5 and 6) was affected by the nature of both the substituents on the imidazolyl ligand and of the halide, showing a small decrease of the UV bands maxima in an hour. By analyzing the spectral data of compounds 1 and 2, a percent concentration reduction of about 4–5% was estimated within an hour, grading them eligible for biological tests. The partial instability may be attributed to the formation of cationic bis-carbeneAuCl2 species (Equation (1)), with the [bis-carbeneAuX2]^+ and the respective AuX2^−; these ions were actually detected as positive and negative ions in the ESI-MS spectra (see Figures S12 and S13). […] Additionally, the (+)ESI MS spectrum of the acetonitrile solution of compound 6 is particularly rich in positive ions (Figure S16). As concerns the mono-/bis-carbene formation, it is likely initiated by the large trans effect of the carbene ligands, which induces the chemical lability on the trans halide, triggers […], the formation of bis-carbeneAu(III) species, and AuX2^− or AuX4^− anions:2[NHC-AuX3] ⇔ [[(NHC)2AuX2] [AuX2^−] + 2X(1) […]
The stability of the samples 1-8 in DMSO solution was assayed by UV-visible spectroscopy. Spectra were acquired using the Shimadzu UV-2700i spectrophotometer, equipped with the Shimadzu CPS-100 Peltier, at 293 K. Unless diversely specified, 100 µM DMSO solutions of the 1-8 compounds were prepared and spectra were acquired each 10 minutes for a total of 60 minutes. The spectra obtained are reported as following.
Figure S19. UV-Visible Spectra acquired for complex 1.
Figure S20. UV-Visible Spectra acquired for complex 2. […]

The test system of another data set is H1355. As to the kind of experiment: MTT viability assay, H1355. The data set is classed as cell-based, human. Conditions: mean ± span, 48 h treatment, cell line with KRAS mutation. In a few lines:
as §1

Data set [3] deals with T1, recombinant human DHFR (hDHFR) (Homo sapiens, UniProt P00374).
T1 construct: made in house; host or cells: E. coli BL21, plasmid pET17b (gift of C. Robert Matthews)
T1 sequence (P00374 1-187): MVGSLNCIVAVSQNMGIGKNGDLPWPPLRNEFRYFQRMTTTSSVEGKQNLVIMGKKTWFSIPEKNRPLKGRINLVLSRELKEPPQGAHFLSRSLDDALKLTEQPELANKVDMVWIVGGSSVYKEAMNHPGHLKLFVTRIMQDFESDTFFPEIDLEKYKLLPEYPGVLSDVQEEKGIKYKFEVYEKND
As to the kind of experiment: Cell-free human dihydrofolate reductase enzymatic activity. The data set is classed as biochemical. Particulars: for effect on hDHFR enzymatic activity: H2F sub-saturating (~20 µM) and close to Km (~3 µM). How it is done:
Recombinant human DHFR was overexpressed and purified from pET17b (+) encoding the hDHFR gene/BL21 (Novagene® (Hong Kong, China)) E. coli cells as described in the literature. The protein purity was verified as a single band in Coomassie-stained SDS-PAGE. The concentration of the hDHFR was measured spectrophotometrically at 280 nm using the extinction coefficient of 28,400 M^−1 cm^−1 and resulted to be equal to 14 µM. The activity of the DHFR was followed by recording the absorbance over time at 340 nm in a UV-VIS spectrophotometer Shimadzu UV-2450. The procedure consisted of mixing the 50 mM Hepes buffer (pH 7.3) with saturating concentration NADPH ([…]) and […] hDHFR, incubating at 37 °C for 5 min, and starting the reaction by adding H2F at various concentrations. When testing the inhibition capacity of gold complexes, the reaction mixture was prepared by adding increasing concentrations of the tested compounds before the incubation at 37 °C. Since the gold complexes were solubilized in 100% methanol (HPLC-grade, Carlo Erba), the enzymatic activity of hDHFR was also assessed in the presence of the equal volumes of MeOH used in the assays with the gold complexes and eventually subtracted. Data are represented as mean ± SEM of 2 independent experiments and analyzed according to best-fit models using GraphPad Prism (v10).
For the data analysis of hDHFR enzymatic activity, the sigmoidal non-linear fitting model in the GraphPad Prism (v10) was used, in which the concentration of inhibitor was expressed as concentrations: Y = Bottom + (Top − Bottom)/(1 + (IC50/X)^HillSlope). Figures were partially prepared with BioRender (https://app.biorender.com) accessed on 25 July 2024).

In another data set the test system is H1792. As to the kind of experiment: MTT viability assay, H1792. It is filed as cell-based, human. Conditions: mean ± span, 48 h treatment, cell line with KRAS mutation. In a few lines:
as §1

In a further data set the test system is IMR90. As to the kind of experiment: MTT viability assay, IMR90 non-transformed lung fibroblasts. The data set is classed as cell-based, human. Particulars: for selectivity for the NSCLC cell lines over the lung fibroblasts: IMR90 vs NSCLC cell lines, MTT 48 h; for IC50: mean ± span, 48 h treatment, MTT, non-transformed human lung fibroblasts. The protocol:
NSCLC cell lines were obtained from the Hamon Center for Therapeutic Oncology Research (UT Southwestern Medical Center). IMR-90 human lung fibroblasts were from ATCC (CC-186). All cell lines were maintained and treated in RPMI medium (Cytiva (Shanghai, China), #SH30027), supplemented with 10% heat-inactivated FBS (Millipore Sigma (Darmstadt, Germany), F0394).
5000–10,000 cells/0.1 mL/well were seeded in 96-well plates to achieve 70% confluence after 24 h. All drug stock solutions were prepared fresh in DMSO at a concentration of 10 mM. The day after cell plating, we added 0.1 mL of medium containing the appropriate drug dilutions. After 48 h of treatment, 10 μL of MTT solution (5 mg/mL) was added to each well. After 4 h incubation, the medium was aspirated, and the formazan salts dissolved in 200 μL DMSO/well for 10 min at 37 °C. The absorbance was read at 570 nm (OD 570 nm). Data are represented as mean ± SD of two independent experiments.
Statistical and data analysis was performed using GraphPad Prism (v10). IC50 values were calculated using a three-parameter non-linear regression model with log(inhibitor) vs. response. For the TxrR activity statistics, the groups were compared using a two-way ANOVA followed by Dunnett’s multiple comparisons with alpha = 0.05. The correlation between IC50 values and TxrR activity was achieved using Pearson correlation with alpha = 0.05.

For the compound `Clc1n[c]([Au-][P+](c2ccccc2)(c2ccccc2)c2ccccc2)n(Cc2ccccc2)c1Cl` [Compound 7], the IC50 in the data set on H1395 was 6.3 ± 0.98 µM; in the data set on H460, 6.6 ± 1.02 µM; in data set [1] it was 4 µM; in the data set on H1355, 7.8 ± 0.61 µM; in data set [3] (H2F concentration 3.47 µM, read-out: hDHFR IC50) it was 10.9 ± 9.77 µM; in data set [3] (H2F concentration 21.0 µM, read-out: hDHFR IC50), 23.6 ± 20.7 µM. The 50% inhibitory concentration (IC50) was determined as 12 ± 1.04 µM in the data set with H1792 and 63 ± 2.5 µM in the data set with IMR90. The “stability in solution” value in data set [2] is “highest stability in solution”. The “magnitude of inhibition, hDHFR” value in data set [3] (H2F concentration 3.47 µM) and in data set [3] (H2F concentration 21.0 µM) was ~ 50% throughout. Besides, in data set [3], the “effect on hDHFR enzymatic activity” value is on record as “very little effect on the enzymatic activity”. Further, in the data set on IMR90, the “selectivity for the NSCLC cell lines over the lung fibroblasts” value is on record as “good selectivity”.
For the compound `Cn1cc[n+](C)[c]1[Au-2]([Cl])[P+](c1ccccc1)(c1ccccc1)c1ccccc1` [Compound 8], the half-maximal inhibitory concentration (IC50) turned out to be 5.9 ± 0.97 µM in the data set on H1395; 13 ± 1.4 µM in the data set on H460; 3 µM in data set [1]; 6.4 ± 0.65 µM in the data set with H1355; 15 ± 1.25 µM in data set [3] (H2F concentration 3.89 µM, sigmoidal fit, read-out: hDHFR IC50); 14.8 ± 1.25 µM in data set [3] (H2F concentration 22.6 µM, sigmoidal fit, read-out: hDHFR IC50). Moreover, the IC50 in data set [3] (dihydrofolate concentration comparable with the Km, read-out: hDHFR IC50 (conclusions)) is about 15 µM; in the data set with H1792, 15 ± 1.1 µM; in the data set on IMR90 it was 87 ± 4.9 µM. Besides, in data set [2], the “stability in solution” value is listed as “highest stability in solution”. Further, in data set [3], the “effect on hDHFR enzymatic activity” value is recorded as “important inhibitory function”. For the same compound, the “reduction of the enzymatic activity of hDHFR (conclusions)” value in data set [3] (dihydrofolate concentration comparable with the Km) is 80%. Besides, the “selectivity for the NSCLC cell lines over the lung fibroblasts” value in the data set on IMR90 is on record as “good selectivity”.
